# Measured values reported in patent US11109590B2 (priority 2017, dated 2021).
# Read-outs that look alike come from different tables or passages of the source.
# Assays:
# [1] = system: Legionella pneumophilia (ATCC 33152); format: cell-based; conditions: pH 8.0, 0.005% yeast extract
# [2] = system: P. aeruginosa (PA01) in biofilm; assay: Antimicrobial efficacy in relation to bacteria in biofilm (24 hours old); format: cell-based; conditions: for Log10 reduction factor: biofilm, starting number > 8 log10 cfu/cm^2
Compound,"Log10 reduction factor ([1]; 7.50% aqueous solution, 15 min exposure)","Log10 reduction factor ([1]; 7.50% aqueous solution, 30 min exposure)","Log10 reduction factor ([1]; 7.50% aqueous solution, 60 min exposure)","Log10 reduction factor ([1]; 7.50% aqueous solution, 120 min exposure)","Log10 reduction factor ([2]; 1.7% solution, 5 min exposure)","Log10 reduction factor ([2]; 1.7% solution, 15 min exposure)","Log10 reduction factor ([2]; 1.7% solution, 30 min exposure)","Log10 reduction factor ([2]; 1.7% solution, 60 min exposure)","antimicrobial efficacy in biofilms (in words) ([2]; 1.7%, compared to 17% H2O2 and 100% PAM)",antimicrobial efficacy in relation to biofilms (in words) ([2]; 17%),"Log10 reduction factor ([2]; 17% aqueous solution, 5 min exposure)","Log10 reduction factor ([2]; 17% aqueous solution, 15 min exposure)","Log10 reduction factor ([2]; 17% aqueous solution, 30 min exposure)","Log10 reduction factor ([2]; 17% aqueous solution, 60 min exposure)","antimicrobial effect in relation to the test organisms in biofilms 24 hours old (in words) ([2]; 17% solution, after just 5 minutes of exposure time)","Log10 reduction factor ([1]; aqueous 1% solution, 15 min exposure)","Log10 reduction factor ([1]; aqueous 1% solution, 30 min exposure)","Log10 reduction factor ([1]; aqueous 1% solution, 60 min exposure)","Log10 reduction factor ([1]; aqueous 1% solution, 120 min exposure)"
"OO [H2O2, hydrogen peroxide]",2.24 Log10,3.44 Log10,4.25 Log10,4.83 Log10,0.84 Log10,1.62 Log10,1.95 Log10,2.53 Log10,significant loss of antimicrobial efficacy,high and substantially equivalent,>8.00 Log10,>8.00 Log10,>8.00 Log10,>8.00 Log10,high antimicrobial effect,,,,
polyoxyethylene (20) sorbitan monooleate [PSb 80],,,,,,,,,,,,,,,,0.06 Log10,0.09 Log10,0.09 Log10,0.11 Log10
